Data as given in patent publication US10925876B2, “Methods for using triazolo-pyrazinyl soluble guanylate cyclase activators in fibrotic disorders” (Merck Sharp & Dohme Corp., priority 2016, dated 2021).

Assays:
sGC α1/β1 heterodimer = target: T1, sGC α1/β1 heterodimer (Homo sapiens, UniProt Q02108+Q02153); assay: Cell-Based sGC Functional Assay (CASA Assay), cGMP generation in CHO-K1/sGC cells;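 note: reference Compound A is a published heme-dependent sGC activator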; details: maximum cGMP production of Compound A set to 100% activation, read-out: % Act. (percent activation relative to Compound A)
T1 construct: expressed in transfected cells
T1 sequence (Q02108 1-690): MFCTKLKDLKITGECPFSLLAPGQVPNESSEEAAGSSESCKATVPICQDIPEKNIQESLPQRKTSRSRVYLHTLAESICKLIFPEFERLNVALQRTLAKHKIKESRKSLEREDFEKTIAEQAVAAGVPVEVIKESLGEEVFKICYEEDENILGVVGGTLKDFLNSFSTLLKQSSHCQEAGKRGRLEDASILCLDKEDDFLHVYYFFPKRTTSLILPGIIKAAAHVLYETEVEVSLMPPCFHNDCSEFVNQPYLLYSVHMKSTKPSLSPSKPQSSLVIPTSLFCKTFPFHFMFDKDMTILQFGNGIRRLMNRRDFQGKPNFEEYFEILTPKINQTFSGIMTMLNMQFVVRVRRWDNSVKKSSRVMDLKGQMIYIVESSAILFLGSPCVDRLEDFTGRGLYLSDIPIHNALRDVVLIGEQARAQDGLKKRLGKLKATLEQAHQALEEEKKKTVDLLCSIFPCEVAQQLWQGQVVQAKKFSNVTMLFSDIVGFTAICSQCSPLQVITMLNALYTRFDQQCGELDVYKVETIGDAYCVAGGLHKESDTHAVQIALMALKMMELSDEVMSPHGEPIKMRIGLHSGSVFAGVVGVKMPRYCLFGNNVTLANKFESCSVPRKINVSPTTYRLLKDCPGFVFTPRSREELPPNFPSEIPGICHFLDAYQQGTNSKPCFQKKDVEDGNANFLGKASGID
T1 sequence (Q02153 1-619): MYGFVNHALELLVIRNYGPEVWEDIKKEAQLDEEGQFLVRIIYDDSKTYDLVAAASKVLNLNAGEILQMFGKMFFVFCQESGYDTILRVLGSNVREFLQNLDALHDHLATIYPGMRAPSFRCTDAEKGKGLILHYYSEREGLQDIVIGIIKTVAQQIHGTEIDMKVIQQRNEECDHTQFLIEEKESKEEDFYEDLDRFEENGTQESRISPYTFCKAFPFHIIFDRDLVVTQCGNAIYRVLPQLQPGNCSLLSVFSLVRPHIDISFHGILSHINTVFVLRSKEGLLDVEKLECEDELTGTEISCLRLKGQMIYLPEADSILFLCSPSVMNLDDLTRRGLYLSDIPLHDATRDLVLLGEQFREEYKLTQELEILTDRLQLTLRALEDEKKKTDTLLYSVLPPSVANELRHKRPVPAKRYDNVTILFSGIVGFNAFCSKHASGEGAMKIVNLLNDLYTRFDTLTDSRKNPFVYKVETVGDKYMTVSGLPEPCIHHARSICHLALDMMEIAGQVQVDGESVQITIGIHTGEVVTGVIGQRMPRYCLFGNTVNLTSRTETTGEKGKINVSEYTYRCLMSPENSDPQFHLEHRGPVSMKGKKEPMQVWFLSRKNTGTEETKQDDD
Outline: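 CHO-K1 cells stably expressing human sGC α1/β1, 4×10^5/mL in EBSS with 5 mM MgCl2, 10 mM HEPES, 0.05% BSA, 0.5 mM IBMX, 2.5% DMSO; compounds 1 h at 37 °C ± 1 μM DETA-NO. cGMP by HTRF, expressed as % of reference Compound A maximum; IP and max fold induction from 4P fit.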

[1] = test system: Spontaneously hypertensive rats (SHR); assay: Acute Efficacy in Spontaneously Hypertensive Rats (SHR), telemetry blood pressure; type: in vivo, rat; details: single oral gavage
Outline: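 Male SHR fitted with aortic telemetry transmitters and recovered 14 days; conscious blood pressure sampled 30 s every 10 min. Single oral gavage dose (vehicle 10% transcutol/20% Cremophor/70% water); hourly SBP change versus prior-day vehicle baseline, reported as maximum peak decrease.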

| Compound | Emax (sGC α1/β1 heterodimer) [%] | Maximum peak decrease of systolic blood pressure (SBP) in SHR, Cat. ([1]; P.O. 0.3 mpk) | Maximum peak decrease of systolic blood pressure (SBP) in SHR, Cat. ([1]; P.O. 1 mpk) | Maximum peak decrease of systolic blood pressure (SBP) in SHR, Cat. ([1]; P.O. 2 mpk) | Maximum peak decrease of systolic blood pressure (SBP) in SHR, Cat. ([1]; P.O. 3 mpk) |
| --- | --- | --- | --- | --- | --- |
| CC1(c2cn(C3CC3)nn2)C(=O)Nc2nc(-c3cn4ncnc4c(CCC(F)(F)C(F)(F)F)n3)nc(N)c21 (centres unmarked) [Example 95B, 4-Amino-5-(1-cyclopropyl-1H-1,2,3-triazol-4-yl)-5-methyl-2-(8-(3,3,4,4,4-pentafluorobutyl)-[1,2,4]triazolo[1,5-a]pyrazin-6-yl)-5H-pyrrolo[2,3-d]pyrimidin-6(7H)-one] | 74 | C (Category C=SBP in SHRs >40 mmHg) | – | – | – |
| CC1(c2nnc(C3CC3)o2)C(=O)Nc2nc(-c3cn4ncnc4c(CCC(F)(F)C(F)(F)F)n3)nc(N)c21 (centres unmarked) [Example 98B, 4-amino-5-(5-cyclopropyl-1,3,4-oxadiazol-2-yl)-5-methyl-2-(8-(3,3,4,4,4-pentafluorobutyl)-[1,2,4]triazolo[1,5-a]pyrazin-6-yl)-5H-pyrrolo[2,3-d]pyrimidin-6(7H)-one] | 164 | – | B (Category B=SBP in SHRs 20-40 mmHg) | – | – |
| Cc1nc2c(CCC(F)(F)C(F)(F)F)nc(-c3nc(N)c4c(n3)NC(=O)C4(C)c3nnc(C4CC4)o3)cn2n1 (centres unmarked) [Example 103A, 4-amino-5-(5-cyclopropyl-1,3,4-oxadiazol-2-yl)-5-methyl-2-(2-methyl-8-(3,3,4,4,4-pentafluorobutyl)-[1,2,4]triazolo[1,5-a]pyrazin-6-yl)-5H-pyrrolo[2,3-d]pyrimidin-6(7H)-one] | 104 | – | – | A (Category A=SBP in SHRs <20 mmHg) | – |
| Nc1nc(-c2cn3ncnc3c(CCCC(F)(F)F)n2)nc2c1C(c1nnc(C3CC3)o1)(C1CC1)C(=O)N2 (centres unmarked) [Example 104A, 4-amino-5-cyclopropyl-5-(5-cyclopropyl-1,3,4-oxadiazol-2-yl)-2-(8-(4,4,4-trifluorobutyl)-[1,2,4]triazolo[1,5-a]pyrazin-6-yl)-5H-pyrrolo[2,3-d]pyrimidin-6(7H)-one] | 117 | – | – | – | C (Category C=SBP in SHRs >40 mmHg) |
| CCCCc1nc(-c2nc(N)c3c(n2)NC(=O)C3(c2nnc(C(F)(F)F)o2)C2CC2)cn2ncnc12 (centres unmarked) [Example 105A, 4-amino-2-(8-butyl-[1,2,4]triazolo[1,5-a]pyrazin-6-yl)-5-cyclopropyl-5-(5-(trifluoromethyl)-1,3,4-oxadiazol-2-yl)-5H-pyrrolo[2,3-d]pyrimidin-6(7H)-one] | 176 | B (Category B=SBP in SHRs 20-40 mmHg) | – | – | – |
| Nc1nc(-c2cn3ncnc3c(CCCC(F)(F)F)n2)nc2c1C(c1nnc(C(F)(F)F)o1)(C1CC1)C(=O)N2 (centres unmarked) [Example 106A, 4-amino-5-cyclopropyl-2-(8-(4,4,4-trifluorobutyl)-[1,2,4]triazolo[1,5-a]pyrazin-6-yl)-5-(5-(trifluoromethyl)-1,3,4-oxadiazol-2-yl)-5H-pyrrolo[2,3-d]pyrimidin-6(7H)-one] | 95 | C (Category C=SBP in SHRs >40 mmHg) | – | – | – |
| Nc1nc(-c2cn3ncnc3c(CCC(F)(F)C(F)(F)F)n2)nc2c1C(c1nnc(C3CC3)o1)(C1CC1)C(=O)N2 (centres unmarked) [Example 107A, 4-amion-5-cyclopropyl-5-(5-cyclopropyl-1,3,4-oxadiazol-2-yl)-2-(8-(3,3,4,4,4-pentafluorobutyl)-[1,2,4]triazolo[1,5-a]pyrazin-6-yl)-5H-pyrrolo[2,3-d]pyrimidin-6(7H)-one] | 76 | – | – | – | C (Category C=SBP in SHRs >40 mmHg) |
| CC1(c2ccc(O)cn2)C(=O)Nc2nc(-c3cn4ncnc4c(CCC(F)(F)C(F)(F)F)n3)nc(N)c21 (centres unmarked) [Example 110A, 4-Amino-5-(5-hydroxypyridin-2-yl)-5-methyl-2-(8-(3,3,4,4,4-pentafluorobutyl)-[1,2,4]triazolo[1,5-a]pyrazin-6-yl)-5,7-dihydro-6H-pyrrolo[2,3-d]pyrimidin-6-one] | 70 | – | – | – | B (Category B=SBP in SHRs 20-40 mmHg) |
| Nc1nc(-c2cn3ncnc3c(CCCC(F)(F)F)n2)nc2c1C(c1ccc(O)cn1)(C1CC1)C(=O)N2 (centres unmarked) [Example 112A, 4-amino-5-cyclopropyl-5-(5-hydroxypyridin-2-yl)-2-(8-(4,4,4-trifluorobutyl)-[1,2,4]triazolo[1,5-a]pyrazin-6-yl)-5H-pyrrolo[2,3-d]pyrimidin-6(7H)-one] | 91 | – | – | – | A (Category A=SBP in SHRs <20 mmHg) |
| Nc1nc(-c2cn3ncnc3c(CCC(F)(F)C(F)(F)F)n2)nc2c1C(c1ccccn1)(C1CC1)C(=O)N2 (centres unmarked) [Example 114A, 4-amino-5-cyclopropyl-2-(8-(3,3,4,4,4-pentafluorobutyl)-[1,2,4]triazolo[1,5-a]pyrazin-6-yl)-5-(pyridin-2-yl)-5,7-dihydro-6H-pyrrolo[2,3-d]pyrimidin-6-one] | 122 | – | B (Category B=SBP in SHRs 20-40 mmHg) | – | – |

Further lines, with some results ahead:

| Emax (sGC α1/β1 heterodimer) [%] | Compound | Maximum peak decrease of systolic blood pressure (SBP) in SHR, Cat. ([1]; P.O. 0.3 mpk) | Maximum peak decrease of systolic blood pressure (SBP) in SHR, Cat. ([1]; P.O. 1 mpk) | Maximum peak decrease of systolic blood pressure (SBP) in SHR, Cat. ([1]; P.O. 2 mpk) | Maximum peak decrease of systolic blood pressure (SBP) in SHR, Cat. ([1]; P.O. 3 mpk) |
| --- | --- | --- | --- | --- | --- |
| 118 | Nc1nc(-c2cn3ncnc3c(CCCC(F)(F)F)n2)nc2c1C(c1ccccn1)(C1CC1)C(=O)N2 (centres unmarked) [Example 115A, 4-amino-5-cyclopropyl-5-(pyridin-2-yl)-2-(8-(4,4,4-trifluorobutyl)-[1,2,4]triazolo[1,5-a]pyrazin-6-yl)-5H-pyrrolo[2,3-d]pyrimidin-6(7H)-one] | – | B (Category B=SBP in SHRs 20-40 mmHg) | – | – |
| 124 | C[C@@]1(c2ccc(F)cc2)C(=O)Nc2nc(-c3cn4ncnc4c(CCC(F)(F)C(F)(F)F)n3)nc(O)c21 [Example 119A, (S)-5-(4-fluorophenyl)-4-hydroxy-5-methyl-2-(8-(3,3,4,4,4-pentafluorobutyl)-[1,2,4]triazolo[1,5-a]pyrazin-6-yl)-5,7-dihydro-6H-pyrrolo[2,3-d]pyrimidin-6-one] | – | B (Category B=SBP in SHRs 20-40 mmHg) | – | – |
| 107 | CC1(c2ccc(Cl)cn2)C(=O)Nc2nc(-c3cn4ncnc4c(CCC(F)(F)C(F)(F)F)n3)nc(O)c21 (centres unmarked) [Example 120A, 5-(5-chloropyridin-2-yl)-4-hydroxy-5-methyl-2-(8-(3,3,4,4,4-pentafluorobutyl)-[1,2,4]triazolo[1,5-a]pyrazin-6-yl)-5H-pyrrolo[2,3-d]pyrimidin-6(7H)-one] | – | B (Category B=SBP in SHRs 20-40 mmHg) | – | – |
| 222 | CC1(c2ccc(Cl)c(F)c2)C(=O)Nc2nc(-c3cn4ncnc4c(CCC(F)(F)C(F)(F)F)n3)nc(O)c21 (centres unmarked) [Example 121B, 5-(4-chloro-3-fluorophenyl)-4-hydroxy-5-methyl-2-(8-(3,3,4,4,4-pentafluorobutyl)-[1,2,4]triazolo[1,5-a]pyrazin-6-yl)-5H-pyrrolo[2,3-d]pyrimidin-6(7H)-one] | – | B (Category B=SBP in SHRs 20-40 mmHg) | – | – |
| 100 | CC1(c2ccc(F)cn2)C(=O)Nc2nc(-c3cn4ncnc4c(CCC(F)(F)C(F)(F)F)n3)nc(O)c21 (centres unmarked) [Example 122B, 5-(5-fluoropyridin-2-yl)-4-hydroxy-5-methyl-2-(8-(3,3,4,4,4-pentafluorobutyl)-[1,2,4]triazolo[1,5-a]pyrazin-6-yl)-5H-pyrrolo[2,3-d]pyrimidin-6(7H)-one] | – | B (Category B=SBP in SHRs 20-40 mmHg) | – | – |
| 87 | CC1(c2cncc(F)c2)C(=O)Nc2nc(-c3cn4ncnc4c(CCC(F)(F)C(F)(F)F)n3)nc(O)c21 (centres unmarked) [Example 125A, 5-(5-fluoropyridin-3-yl)-4-hydroxy-5-methyl-2-(8-(3,3,4,4,4-pentafluorobutyl)-[1,2,4]triazolo[1,5-a]pyrazin-6-yl)-5H-pyrrolo[2,3-d]pyrimidin-6(7H)-one] | – | – | – | A (Category A=SBP in SHRs <20 mmHg) |
